What was measured:
[1] = system: Leishmania donovani; assay: GSK_TCAKS: pIC50 Leishmania donovani viability assay using fluorescence intensity. Assay plates (1536-well) were prepared by adding 30nL per well of compound. For single shot assay, the final compound concentration was 5uM. […] Briefly, eGFP LdBOB axenic amastigotes were harvested, fixed and counted in a CASY cell counter (Roche-Applied Science). A final concentration of 1.5 * 10^5 cells per well were prepared in amastigote media containing 500 U/mL penicillin/streptomycin (Invitrogen) and 6uL was dispensed to each experimental well using a Multidrop Combi dispenser (Thermo Scientific). 6uL of assay media was dispensed to control columns used as reference for 100% compound response. Following incubation for 72 h at 37C, 5% CO2, 2 uL of resazurin was added to each well at a final concentration of 0.5 mM in phosphate buffered saline (PBS) with IGEPAL (Sigma-Aldrich), 0.05% (v/v).; format: functional, organism-based
[2] = GSK_TCAKS: pIC50 HepG2 human cell line viability assay using luminiscence. […] Seeding density was checked to ensure that new mono-layers were not more than 50% confluent at the time of harvesting. Cell suspension was added to 500 mL of the same medium at a final density of 1.2 * 10^5 cells/mL. This cell suspension was dispensed (25 uL, 3000 cells per well) into 384-well clear-bottom plates using a Multidrop Combi dispenser. Prior to addition of the cell suspension, the screening compounds (250 nL) were pre-dispensed into the plates with an Echo liquid handler. Plates were incubated for 48 h at 37C, 5% CO2. After incubation, plates equilibrated at room temperature for 30 min before proceeding to develop the luminescent signal. The signal developer, CellTiter-Glo Reagent, was allowed to equilibrate at room temperature for 30 min and added to the plates (25uL per well) using a Multidrop Combi dispenser. Plates were left for 10 min at room temperature for stabilization and then read using a ViewLux.; format: toxicity, cell-based
[3] = system: Leishmania donovani; assay: GSK_TCAKS: pIC50 Leishmania donovani Imaging: THP-1 Host Macrophages. Assay plates (384-well) were prepared by adding 250nL of compound to each well. For single shot assay, the final compound concentration was 5 uM. […] Automated image analysis was performed with a script developed on Acapella High Content Imaging and Analysis Software (PerkinElmer). Output: THP-1 cell count were reported for each well.; format: functional, organism-based, Homo sapiens
[4] = system: Leishmania donovani; assay: GSK_TCAKS: pIC50 Leishmania donovani Imaging: Amastigotes/Macrophages. Assay plates (384-well) were prepared by adding 250nL of compound to each well. For single shot assay, the final compound concentration was 5 uM. […] Automated image analysis was performed with a script developed on Acapella High Content Imaging and Analysis Software (PerkinElmer). Output: Average number of amastigotes per macrophage cell were reported for each well.; format: functional, organism-based, Homo sapiens; conditions: THP-1
[5] = system: Trypanosoma cruzi; assay: GSK_TCAKS: pIC50 Trypanosoma cruzi viability assay using beta-GAL activity. This assay was run at single shot at 5uM compound concentration per well. The biological reagents consisted of NIH-3T3 host cells and trypomastigotes parasitic cells; both cell types were set to a 3.3 * 10^5 cells/mL dilution in assay DMEM by means of a CASY cell counter device using a 60um capillary. 6 uL of the mixture were dispensed per well (about 1 * 10^3 host-cells and 1 * 10^3 parasites) with a Multidrop Combi dispenser. […] In all wells, the percentage of DMSO never exceeded 0.5%. Plates incubated for four days at 37C, 5% CO2. The substrate used for the assay fluorescence intensity (FLINT) readout was resorufin-beta-D-galactopiranoside (Sigma-Aldrich) at 5uM per well. It was diluted in PBS supplemented with the soft detergent Igepal (Fluka).; format: functional, organism-based, Mus musculus; conditions: Tulahuen, NIH3T3
[6] = system: Leishmania donovani; assay: GSK_TCAKS: pIC50 Leishmania donovani Imaging: Infected Macrophages. Assay plates (384-well) were prepared by adding 250nL of compound to each well. For single shot assay, the final compound concentration was 5 uM. […] Automated image analysis was performed with a script developed on Acapella High Content Imaging and Analysis Software (PerkinElmer). Output: Percent of infected macrophage cells were reported for each well.; format: functional, organism-based, Homo sapiens; conditions: THP-1
[7] = system: Trypanosoma cruzi; assay: GSK_TCAKS: pIC50 Trypanosoma cruzi Imaging: Amastigotes/Cell. […] Cells were then washed once with PBS before infection. T. cruzi trypomastigotes, collected at days 5 to 8 after infection from LLC-MK2 parasite infected cultures, were allowed to swim out for 4h at 37C from a centrifuged pellet (2,500 rpm/10 min/room temperature). Trypomastigotes were then collected and counted in a CASY Cell Counter. Trypomastigotes, in supplemented DMEM, were added to H9c2 cultures in a multiplicity of infection of 1 and incubated for 18 h. Cells were washed once with PBS before incubation of the infected H9c2 monolayer with trypsin (Life-Technologies) to detach cells from the flask. Cells were counted in a CASY Cell Counter using a 150 um capillary and their density set at 5 * 10^4 cells per mL in supplemented assay DMEM. Infected H9c2 were dispensed into 384-well poly-lysine coated assay plates at 50uL per well using a Multidrop Combi dispenser. After seeding them, the plates were incubated at 37C, 5% CO2 for 72h. Cultures were then fixed and stained by addition of 50 uL of a solution containing 8% formaldehyde and 4 uM DRAQ5 DNA dye (BioStatus, UK) per well. […] Five images were collected per well for reliable statistical analysis. Automated image analysis was performed with a script developed on Acapella High Content Imaging and Analysis Software (PerkinElmer). Output: number of amastigotes per cell as infection level measurement.; format: functional, organism-based, Rattus norvegicus; conditions: H9c2, 4 h
[8] = system: Trypanosoma cruzi; assay: (§1) GSK_TCAKS: pIC50 Trypanosoma cruzi Imaging: Infected Cells. […] Cells were then washed once with PBS before infection. T. cruzi trypomastigotes, collected at days 5 to 8 after infection from LLC-MK2 parasite infected cultures, were allowed to swim out for 4h at 37C from a centrifuged pellet (2,500 rpm/10 min/room temperature). Trypomastigotes were then collected and counted in a CASY Cell Counter. Trypomastigotes, in supplemented DMEM, were added to H9c2 cultures in a multiplicity of infection of 1 and incubated for 18 h. Cells were washed once with PBS before incubation of the infected H9c2 monolayer with trypsin (Life-Technologies) to detach cells from the flask. Cells were counted in a CASY Cell Counter using a 150 um capillary and their density set at 5 * 10^4 cells per mL in supplemented assay DMEM. Infected H9c2 were dispensed into 384-well poly-lysine coated assay plates at 50uL per well using a Multidrop Combi dispenser. After seeding them, the plates were incubated at 37C, 5% CO2 for 72h. Cultures were then fixed and stained by addition of 50 uL of a solution containing 8% formaldehyde and 4 uM DRAQ5 DNA dye (BioStatus, UK) per well. […] Five images were collected per well for reliable statistical analysis. Automated image analysis was performed with a script developed on Acapella High Content Imaging and Analysis Software (PerkinElmer). Output: percentage of infected cells per well as a second infection marker.; format: functional, organism-based, Rattus norvegicus; conditions: H9c2, 4 h
[9] = target: Sterol 14-alpha demethylase (Trypanosoma cruzi (strain CL Brener), UniProt Q7Z1V1); assay: GSK_TCAKS: pIC50 CYP51 from Trypanosoma cruzi.; format: functional
Chain of Sterol 14-alpha demethylase (Q7Z1V1 whole entry): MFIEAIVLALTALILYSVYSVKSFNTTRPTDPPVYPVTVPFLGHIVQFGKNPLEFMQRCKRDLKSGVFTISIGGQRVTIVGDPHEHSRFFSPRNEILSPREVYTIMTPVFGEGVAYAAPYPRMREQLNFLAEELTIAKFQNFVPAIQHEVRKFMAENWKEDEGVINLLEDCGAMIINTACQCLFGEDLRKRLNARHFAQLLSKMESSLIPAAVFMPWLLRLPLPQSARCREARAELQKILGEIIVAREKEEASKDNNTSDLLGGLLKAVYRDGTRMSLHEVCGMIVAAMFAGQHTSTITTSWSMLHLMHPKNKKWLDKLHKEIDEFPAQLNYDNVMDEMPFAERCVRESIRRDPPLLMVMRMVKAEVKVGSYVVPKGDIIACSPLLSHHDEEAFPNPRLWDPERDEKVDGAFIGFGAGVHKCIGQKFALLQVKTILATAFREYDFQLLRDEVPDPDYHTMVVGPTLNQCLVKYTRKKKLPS

[10] = system: Trypanosoma cruzi; assay: as §1, with “H2C9” for “Trypanosoma cruzi”, “H9c2 Host Cardiomyocytes.” for “Infected Cells.”, “Number” for “percentage”, “H9c2 Host Cardiomyocytes nuclei to determine drug-related cytotoxicity.” for “infected cells per well as a second infection marker.”; format: functional, organism-based, Rattus norvegicus; conditions: H9c2, 4 h
[11] = system: Trypanosoma brucei brucei; assay: GSK_TCAKS: pIC50 Trypanosoma brucei viability assay using luminiscence. Assay plates (1536-well) were prepared. T. brucei cultures were harvested and counted in a CASY cell counter. A parasite suspension was prepared at a final concentration of 5 * 10^4 cells/mL in complete HMI9 medium and 6uL was dispensed to all wells containing compounds using a Multidrop Combi dispenser. 6uL of HMI9 media with 0.4% DMSO were dispensed to control columns. Plates were incubated for 24 h at 37C, 5% CO2 then tempered for 10 min at room temperature. ATP content was quantified by adding 4 uL of CellTiter-Glo Reagent (Promega) according to the manufacturer's instructions. Luminescence was measured using a ViewLux.; format: functional, organism-based; conditions: Lister 427, CASY
[12] = system: Trypanosoma brucei brucei; assay: GSK_TCAKS: pIC50 Trypanosoma brucei viability assay using fluorescence intensity. Assay plates (1536-well) were prepared by dispensing 25nL of compound solution per well using an Echo acoustic dispenser (Labcyte).; format: functional, organism-based; conditions: Lister 427, 2 h

SMILES	IC50 [1] [µM]	IC50 at 48 h [2] [µM]	IC50 [3] [µM]	IC50 [4] [µM]	IC50 [5] [µM]	IC50 [6] [µM]	IC50 [7] [µM]	IC50 [8] [µM]	IC50 [9] [µM]	IC50 [10] [µM]	IC50 [11] [µM]	IC50 [12] [µM]
O=C(c1ccc(O)c(Cl)c1)N1CCN(c2cnccn2)CC1	0.316	> 100	> 50.1	3.16	> 50.1	5.01	10	> 50.1	> 100	> 50.1	> 39.8	> 39.8
O=C(Nc1ccc(C(F)(F)F)cc1)NC1(C(=O)NCc2ccco2)CCCCC1	39.8	> 100	31.6	> 50.1	7.94	> 50.1	> 50.1	> 50.1	> 31.6	> 50.1	1	0.794
Nc1nonc1-c1nc2cncc(C(=O)N3CC[C@H](N)C3)c2n1CC1CC1	> 50.1	> 100	12.6	39.8	> 50.1	20	12.6	> 50.1	12.6	> 50.1	0.794	0.631
CC(C)(C)c1csc(NC(=O)c2ccc([N+](=O)[O-])s2)n1	1.58	50.1	> 50.1	2.51	0.158	3.16	0.2	0.316	7.94	12.6	1.58	0.2
Cc1ccc(Nc2nc(C3CCCN3Cc3cc[nH]n3)cs2)nc1 (configuration not stated)	12.6	31.6	25.1	1.26	0.794	1.58	2	2	6.31	10	3.98	0.794
NC(=O)c1ncccc1Nc1nc(N[C@H]2CC[C@H](O)CC2)ncc1Br	1.26	> 100	0.398	0.631	1.58	1.26	0.501	2	> 100	0.631	0.631	0.316
O=C(Cc1ccccc1)Nc1ccccc1C(=O)Nc1nccs1	> 50.1	> 100	> 50.1	> 50.1	39.8	> 50.1	> 50.1	> 50.1	> 100	> 50.1	0.251	0.251
CC(C)c1nn(-c2nc(N)nc(-c3ccccn3)n2)c(N)c1C1CCCCC1	7.94	20	5.01	0.794	2	1	1.26	1.26	3.16	3.16	7.94	7.94
COCCn1cnc2cc(NC(=O)C3CCCCC3)cc(C(=O)N3CCc4sccc4C3)c21	> 50.1	> 100	> 50.1	> 50.1	20	> 50.1	20	31.6	50.1	> 50.1	1	0.794
O=C(NNC(=O)c1ccccn1)c1ccc(-c2ccccc2)cc1	3.16	> 100	3.16	3.16	1.58	6.31	1.26	1.58	31.6	2	0.631	0.316
CC(C)COC(=O)Nc1ccc(N2CCC(CNS(=O)(=O)c3ccccc3)CC2)c(F)c1	3.98	> 100	> 50.1	1.26	10	2	7.94	7.94	2	> 79.4	20	2.51

Source: ChEMBL document CHEMBL3430912, “GSK Tres Cantos Anti-Kinetoplastid Screening (TCAKS) Data”
